Among the data in US20240239804A1, “FUROINDAZOLE DERIVATIVES AS ANTAGONISTS OR INHIBITORS OF GPR84” (Bayer Aktiengesellschaft, priority 2021, published 2024) are IC50 values, retold here.

T1 sequence (Q9NQS5 whole entry): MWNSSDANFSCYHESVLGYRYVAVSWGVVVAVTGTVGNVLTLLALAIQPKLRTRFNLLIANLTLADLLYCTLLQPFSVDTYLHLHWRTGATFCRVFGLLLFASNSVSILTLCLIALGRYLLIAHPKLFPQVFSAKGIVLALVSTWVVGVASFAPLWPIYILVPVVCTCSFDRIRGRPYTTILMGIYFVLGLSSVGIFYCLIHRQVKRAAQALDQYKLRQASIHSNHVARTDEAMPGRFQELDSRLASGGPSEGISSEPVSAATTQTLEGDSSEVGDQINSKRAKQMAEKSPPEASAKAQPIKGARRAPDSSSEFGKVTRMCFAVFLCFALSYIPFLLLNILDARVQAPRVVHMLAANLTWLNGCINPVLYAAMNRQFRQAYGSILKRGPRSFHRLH

The assay addresses T1, human GPR84 receptor (Homo sapiens, UniProt Q9NQS5).
T1 construct: frozen aliquots prepared by acCELLerate; host or cells: CHO-K1
Briefly: cAMP HTRF assay for identification of cellular GPR84 antagonists. The settings on record: CHO-K1 cells stably expressing human GPR84; Forskolin plus agonist 6-OAU; cAMP HTRF readout; average or median values. Format: cell-based. The text has this: cAMP HTRF® Assay for Identification of Cellular GPR84 Antagonists
By using a Homogenous Time-Resolved Fluorescence (HTRF®) based assay (#62AM5PEJ, Cisbio, Condolet, France) the inhibition of the Gi-coupled GPR84 receptor can be detected. CHO-K1 cells stably expressing human GPR84 receptor (purchased from DiscoveRx, now Eurofins) were used and treated with Forskolin (F6886, Sigma, Germany) to stimulate membrane adenylyl cyclases and thereby unspecific cAMP formation. Activation of the Gi-coupled GPR84 by a natural or small molecule agonist (e.g. 6-n-octyl aminouracile, inhouse) results in inhibition of cellular cAMP formation which can be released again by antagonists to this receptor. Detection and quantification of cellular cAMP levels in this HTRF assay is achieved by interaction between a fluorescent cAMP tracer (cAMP-d2) and an Eu-cryptate labelled anti-cAMP antibody. Following excitation at 337 nm this pairing allows for the generation of a fluorescence resonance energy transfer (FRET) between the partners and results in FRET induced emissions at 665 nm and 620 nm, the latter representing background signal by Eu-cryptate labelled anti-cAMP antibody. Maximal signal is obtained in the absence of any cellular cAMP (no competition for the binding of the tracer to the antibody). Given the combination of the Gi coupling properties of GPR84 and the competitive nature of the detection system agonist treatment should result in an increase in the HTRF signal due to lowered cAMP levels. Any signal decrease in the presence of Forskolin, agonist and compound are indicative of antagonist mediated abrogation of GPR84 signalling.
For the assay, frozen aliquots of CHO-K1 cells expressing hGPR84 (prepared by acCELLerate, Hamburg, Germany) were thawed and a cell suspension (1.67E+06 cells/mL) in assay media (Ham's F12 Nutrient Mix, Thermo Fisher Scientific, Waltham, USA; 5% fetal calf serum, Biomol, Hamburg, Germany) containing cAMP-d2 (dilution 1:20, supplied with the kit #62AM5PEJ, Cisbio, Condolet, France) was prepared. After recovery of cells for 20 minutes at 37° C., 3 μL/well cell suspension including cAMP-d2 were added to a pre-dispensed assay plate (Greiner Bio-One, Kremsmuenster, Austria) containing 50 nl/well test compound in 100% DMSO or 100% DMSO as control. This was followed by a 30 minute incubation step at room temperature. The stimulation time was started by addition of 2 μL/well assay media containing 2.5×EC80 agonist 6-OAU and 2.5×EC90 Forskolin (negative control: 2.5×EC90 Forskolin in assay media) and was continued for 30 minutes at room temperature. The reaction was stopped by addition of 3 μL/well lysis buffer containing cAMP Eu-Cryptate antibody (dilution 1:20) (both supplied with the kit #62AM5PEJ, Cisbio, Condolet, France). To enable complete lysis, plates were incubated for 60 minutes at room temperature before measurement in an HTRF reader, e.g. a PHERAstar (BMG Labtech, Ortenberg, Germany).
From the fluorescence emissions at 665 nm (FRET) and at 620 nm (background signal of Eu-cryptate) the ratio (emission at 665 nm divided by emission at 620 nm×10000) was calculated and the data were normalized (reaction without test compound, only 100% DMSO=0% inhibition; all other assay components except agonist=100% inhibition). For dose response testing on the same microtiter plate, compounds were tested at 11 different concentrations in the range of 20 μM to 0.07 nM (20 μM, 5.7 μM, 1.6 μM, 0.47 μM, 0.13 μM, 38 nM, 11 nM, 3.1 nM, 0.89 nM, 0.25 and 0.07 nM; dilution series prepared before the assay at the level of the 100-fold conc. stock solutions by serial 1:3.5 dilutions in 100% DMSO) in duplicate values for each concentration. IC50 values were calculated by 4-parameter fitting using a commercial software package (Genedata Screener, Basel, Switzerland).
Examples were tested in selected biological assays one or more times. […]
For `COCCN(C)C(=O)c1oc2c(c1C)-c1nn(Cc3ccc(Cl)cc3)cc1CC2` [Example 80, 2-[(4-chlorophenyl)methyl]-N-(2-methoxyethyl)-N,8-dimethyl-4,5-dihydro-2H-furo[2,3-g]indazole-7-carboxamide], the IC50 was determined as 15.9 µM.

As for `Cc1ccccc1Cn1cc2c(n1)-c1c(oc(C(=O)NCC3CCCN3C(=O)OC(C)(C)C)c1C)CC2` (racemic) [Example 6, tert-butyl (2RS)-2-[{{8-methyl-2-[(2-methylphenyl)methyl]-4,5-dihydro-2H-furo[2,3-g]indazole-7-carbonyl}amino)methyl]pyrrolidine-1-carboxylate], the IC50 worked out at 2.22 µM.

For `Cc1c(C(=O)NCCC(N)=O)oc2c1-c1nn(Cc3ccc(Cl)cc3)cc1CC2` [Example 56, N-(3-amino-3-oxopropyl)-2-[(4-chlorophenyl)methyl]-8-methyl-4,5-dihydro-2H-furo[2,3-g]indazole-7-carboxamide], the IC50 amounted to 4.88 µM.

As to `Cc1c(C(=O)NCCN2CCN(C)CC2)oc2c1-c1nn(Cc3ccc(Cl)cc3)cc1CC2` [Example 23, 2-[(4-chlorophenyl)methyl]-8-methyl-N-[2-(4-methylpiperazin-1-yl)ethyl]-4,5-dihydro-2H-furo[2,3-g]indazole-7-carboxamide], the IC50 amounted to 0.3 µM.

In the case of `Cc1c(C(=O)NCCC#N)oc2c1-c1nn(Cc3ccc(Cl)cc3)cc1CC2` [Example 70, 2-[(4-chlorophenyl)methyl]-N-(2-cyanoethyl)-8-methyl-4,5-dihydro-2H-furo[2,3-g]indazole-7-carboxamide], the IC50 stood at 9.5 µM.

Turning to `Cc1c(C(=O)N2CCC[C@@H]2C(N)=O)oc2c1-c1nn(Cc3ccc(Cl)cc3)cc1CC2` [Example 82, 1-{2-[(4-chlorophenyl)methyl]-8-methyl-4,5-dihydro-2H-furo[2,3-g]indazole-7-carbonyl}-D-prolinamide], the IC50 worked out at 16.4 µM.

Consider `Cc1c(C(=O)NCC(=O)N2CCCC2)oc2c1-c1nn(Cc3ccc(Cl)cc3)cc1CC2` [Example 34, 2-[(4-chlorophenyl)methyl]-8-methyl-N-[2-oxo-2-(pyrrolidin-1-yl)ethyl]-4,5-dihydro-2H-furo[2,3-g]indazole-7-carboxamide], for which the IC50 came out at 1.14 µM.

For `Cc1c(C(=O)NCCN2CCCC2)oc2c1-c1nn(Cc3cccc(Cl)c3)cc1CC2` [Example 18, 2-[(3-chlorophenyl)methyl]-8-methyl-N-[2-(pyrrolidin-1-yl)ethyl]-4,5-dihydro-2H-furo[2,3-g]indazole-7-carboxamide], the IC50 was 1 µM.

Take `Cc1c(C(=O)NCCN2CCCC2)oc2c1-c1nn(Cc3ccc(Cl)cc3)cc1CC2` [Example 24, 2-[(4-chlorophenyl)methyl]-8-methyl-N-[2-(pyrrolidin-1-yl)ethyl]-4,5-dihydro-2H-furo[2,3-g]indazole-7-carboxamide]: the IC50 amounted to 1.05 µM.

For `Cc1c(C(=O)NCC(=O)N2CCOCC2)oc2c1-c1nn(Cc3ccc(Cl)cc3)cc1CC2` [Example 35, 2-[(4-chlorophenyl)methyl]-8-methyl-N-[2-(morpholin-4-yl)-2-oxoethyl]-4,5-dihydro-2H-furo[2,3-g]indazole-7-carboxamide], the IC50 was 3 µM.

`Cc1c(C(=O)NC2CCOCC2)oc2c1-c1nn(Cc3ccc(Cl)cc3)cc1CC2` [Example 77, 2-(4-chlorobenzyl)-8-methyl-N-(tetrahydro-2H-pyran-4-yl)-4,5-dihydro-2H-furo[2,3-g]indazole-7-carboxamide]: the IC50 is 13.8 µM.

Turning to `Cc1c(C(=O)N(C)CCO)oc2c1-c1nn(Cc3ccc(Cl)cc3)cc1CC2` [Example 85, 2-[(4-chlorophenyl)methyl]-N-(2-hydroxyethyl)-N,8-dimethyl-4,5-dihydro-2H-furo[2,3-g]indazole-7-carboxamide], the IC50 amounted to 17 µM.

`Cc1c(C(=O)NCc2cnn3ccccc23)oc2c1-c1nn(Cc3ccc(Cl)cc3)cc1CC2` [Example 50, 2-[(4-chlorophenyl)methyl]-8-methyl-N-[(pyrazolo[1,5-a]pyridin-3-yl)methyl]-4,5-dihydro-2H-furo[2,3-g]indazole-7-carboxamide]: the IC50 stood at 2.69 µM.

Take `Cc1c(C(=O)NCCN2CCCCC2)oc2c1-c1nn(Cc3ccc(Cl)cc3)cc1CC2` [Example 25, 2-[(4-chlorophenyl)methyl]-8-methyl-N-[2-(piperidin-1-yl)ethyl]-4,5-dihydro-2H-furo[2,3-g]indazole-7-carboxamide]: the IC50 is 1.37 µM.

With `CC(=O)N1CCN(C(=O)CNC(=O)c2oc3c(c2C)-c2nn(Cc4ccc(Cl)cc4)cc2CC3)CC1` [Example 29, N-[2-(4-acetylpiperazin-1-yl)-2-oxoethyl]-2-[(4-chlorophenyl)methyl]-8-methyl-4,5-dihydro-2H-furo[2,3-g]indazole-7-carboxamide], the IC50 amounted to 8.21 µM.

On to `Cc1c(C(=O)NCCN2CCC2)oc2c1-c1nn(Cc3ccccc3Cl)cc1CC2` [Example 14, N-[2-(azetidin-1-yl)ethyl]-2-[(2-chlorophenyl)methyl]-8-methyl-4,5-dihydro-2H-furo[2,3-g]indazole-7-carboxamide], for which the IC50 was 1.15 µM.

For `Cc1c(C(=O)NCC2CCCO2)oc2c1-c1nn(Cc3cccc(Cl)c3)cc1CC2` (racemic) [Example 15, 2-[(3-chlorophenyl)methyl]-8-methyl-N-[(2RS)-tetrahydrofuran-2-ylmethyl]-4,5-dihydro-2H-furo[2,3-g]indazole-7-carboxamide], the IC50 was 0.074 µM.

Take `Cc1c(C(=O)N(C)Cc2ccnn2C)oc2c1-c1nn(Cc3ccc(Cl)cc3)cc1CC2` [Example 84, 2-[(4-chlorophenyl)methyl]-N,8-dimethyl-N-[(1-methyl-1H-pyrazol-5-yl)methyl]-4,5-dihydro-2H-furo[2,3-g]indazole-7-carboxamide]: the IC50 was found to be 16.4 µM.

Consider `Cc1c(C(=O)NCC[S+](C)[O-])oc2c1-c1nn(Cc3ccc(Cl)cc3)cc1CC2` (centres unmarked) [Example 63, 2-[(4-chlorophenyl)methyl]-NV-[2-(methanesulfinyl)ethyl]-8-methyl-4,5-dihydro-2H-furo[2,3-g]indazole-7-carboxamide], for which the IC50 was 6.15 µM.

With `Cc1c(C(=O)NCCN2CCOCC2)oc2c1-c1nn(Cc3ccc(Cl)cc3)cc1CC2` [Example 55, 2-[(4-chlorophenyl)methyl]-8-methyl-N-[2-(morpholin-4-yl)ethyl]-4,5-dihydro-2H-furo[2,3-g]indazole-7-carboxamide], the IC50 was determined as 4.18 µM.

In the case of `Cc1c(C(=O)NCC2CCCO2)oc2c1-c1nn(Cc3ccc(Cl)cc3)cc1CC2` (single isomer, unassigned) [Example 21-2], the IC50 came out at 0.089 µM.

On to `Cc1c(C(=O)NCc2ncc[nH]2)oc2c1-c1nn(Cc3ccc(Cl)cc3)cc1CC2` [Example 78, 2-[(4-chlorophenyl)methyl]-N-[(1H-imidazol-2-yl)methyl]-8-methyl-4,5-dihydro-2H-furo[2,3-g]indazole-7-carboxamide], for which the IC50 was 14.3 µM.

With `CC(=O)N1CCN(C(=O)c2oc3c(c2C)-c2nn(Cc4ccc(Cl)cc4)cc2CC3)CC1` [Example 62, 1-(4-{2-[(4-chlorophenyl)methyl]-8-methyl-4,5-dihydro-2H-furo[2,3-g]indazole-7-carbonyl}piperazin-1-yl)ethan-1-one], the IC50 was 6.1 µM.
